# Assay results reported in paper PMC4650713, “Crystal structure of Bax bound to the BH3 peptide of Bim identifies important contacts for interaction” (Cell Death & Disease, 2015).
# Where no end group is shown, it is not given here.
# What was measured:
# BaxΔC21 [1] = target: T1, BaxΔC21 (Homo sapiens, UniProt Q07812, C126S/C62S); assay: Bax binding assay: SPR, BH3 peptides displacing BaxΔC from a BimBH3 chip; conditions: SPR competition, 0.5% octylglucoside
# T1 construct: made in house; host or cells: Escherichia coli BL21(DE3) or ER2566
# Experimental: Bax binding assays were performed using a protocol modified from that described previously.[18] […] IC50 values were calculated with GraphPad Prism (GraphPad Software, La Jolla, CA, USA).
# BaxΔC21 [2] = assay: Core/latch dimer formation of BaxΔC21 with CHAPS and BH3 peptide, analysed by SEC; type: biochemical; conditions: BaxΔC21 2 mg/ml, twofold molar excess of peptide, 1% CHAPS, 1 h at room temperature
# full-length Bax = assay: Liposome permeabilisation (carboxy-fluorescein release) by full-length Bax in response to BH3 peptides; type: biochemical; conditions: liposomes 4 μg/ml, 50 nM full-length Bax, 500 nM BH3 peptide, 1 h at RT; three independent experiments
# Experimental: The suspension was extruded through a 100 nm pore size membrane and then passed over a PD10 column to remove unincorporated dye. Liposomes at 4 μg/ml were incubated with 50 nM full-length Bax and 500 nM BH3 peptide in SUV buffer for 1 h at RT. Fluorescence of released self-quenching 5(6)-carboxy-fluorescein was measured with an excitation wavelength of 485 nm and emission wavelength of 535 nm.
# [3] = system: mitochondria isolated from Bak−/− Bax−/− mouse embryonic fibroblasts (MEFs) ectopically expressing BaxS184L; assay: Cytochrome c release from isolated mitochondria; type: cell-based; conditions: immunoblot of supernatant and pellet, representative of two independent experiments
# Experimental: To test whether this change in binding affinity influenced apoptotic activity, we assessed the ability of each peptide to induce cytochrome c release from mitochondria isolated from Bak^−/− Bax^−/− mouse embryonic fibroblasts (MEFs) ectopically expressing the mitochondrially targeted Bax variant BaxS184L.[28]
# BaxS184L was stably expressed in Bax^−/− Bak^−/− MEFs and cytochrome c release assays were performed as described for Bak.[23] Supernatant and pellet fractions were separated and analysed for cytochrome c by immunoblotting.
# T1 sequence (Q07812 1-171 C62S/C126S): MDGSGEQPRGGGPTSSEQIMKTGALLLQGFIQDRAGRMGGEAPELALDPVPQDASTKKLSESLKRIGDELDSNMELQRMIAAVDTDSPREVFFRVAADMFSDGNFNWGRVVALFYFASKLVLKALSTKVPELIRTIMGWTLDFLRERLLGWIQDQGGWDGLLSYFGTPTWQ
sequence,measurement,setting,value
SESQEDIIRNIARHLRQVGDSMDRSIPPGLVNGL [BidBH3 A91R],binding to BaxΔC21 in the SPR assay,BaxΔC21 [1],behaved similar to BimBH3
same,ability to trigger core/latch dimer formation of BaxΔC21,BaxΔC21 [2],largely unaffected
same,capacity to activate Bax in liposome permeabilisation assay,full-length Bax,enhanced activity over BidBH3
same,potency at releasing cytochrome c from mitochondria,[3],at best a marginally more effective than BidBH3
